Experimental data: publication PMC12736255, “Reinvestigating Pyrrol-2-One-Based Compounds: From Antimicrobial Agents to Promising Antitumor Candidates” (Pharmaceuticals, 2025)

Legend:
M14 = experiment: NCI-60 5-dose screen; assay type: cell-based, human
HS 578T = experiment: NCI-60 5-dose screen; assay type: cell-based, human
HCT-116 = experiment: NCI-60 5-dose screen; assay type: cell-based, human
COLO 205 = experiment: NCI-60 5-dose screen; assay type: cell-based, human
RXF 393 = experiment: NCI-60 5-dose screen; assay type: cell-based, human
A549/ATCC = experiment: NCI-60 5-dose screen; assay type: cell-based, human
SK-OV-3 = experiment: NCI-60 5-dose screen; assay type: cell-based, human
U251 = experiment: NCI-60 5-dose screen; assay type: cell-based, human
BT-549 = experiment: NCI-60 5-dose screen; assay type: cell-based, human
SF-268 = experiment: NCI-60 5-dose screen; assay type: cell-based, human
HL-60(TB) = experiment: NCI-60 5-dose screen; assay type: cell-based, human
MDA-MB-231/ATCC = experiment: NCI-60 5-dose screen; assay type: cell-based, human
CAKI-1 = experiment: NCI-60 5-dose screen; assay type: cell-based, human
MOLT-4 = experiment: NCI-60 5-dose screen; assay type: cell-based, human
HT29 = experiment: NCI-60 5-dose screen; assay type: cell-based, human
CCRF-CEM = experiment: NCI-60 5-dose screen; assay type: cell-based; conditions: Homo sapiens
MDA-MB-468 = experiment: NCI-60 5-dose screen; assay type: cell-based, human
MALME-3M = experiment: NCI-60 5-dose screen; assay type: cell-based, human
IGROV1 = experiment: NCI-60 5-dose screen; assay type: cell-based, human
SW-620 = experiment: NCI-60 5-dose screen; assay type: cell-based, human
OVCAR-3 = experiment: NCI-60 5-dose screen; assay type: cell-based, human
U-118MG = experiment: CellTiter-Glo 2.0 cytotoxicity, glioblastoma; assay type: cell-based, human; conditions: 50 µM, 24 h
Method: Cytotoxicity of compounds was assessed using the CellTiter-Glo® 2.0 Assay (Promega, Madison, WI, USA) on human gingival fibroblasts (HGF), osteosarcoma (HOS and MG-63) and glioblastoma (LN-229 and U-118MG) cells, according to the manufacturer’s instructions. HGF, HOS, MG-63 and U-118MG cells were purchased from Cytion GmbH, Eppelheim, Germany, and LN-229 (CRL-2611) from the American Type Culture Collection (ATCC), Manassas, VA, USA. Cells were seeded (50,000 cells/mL—HGF, 100,000 cells/mL—tumor cells) into 96-well opaque white tissue culture-treated plates and allowed to adhere overnight in αMEM medium with 10% fetal bovine serum and 1% antibiotic-antimycotic (all from PAN—Biotech GmbH, Aidenbach, Germany). Cells were incubated with compounds (10 or 50 µM) for 24 h, then CellTiter-Glo® reagent was added and luminescence was recorded using a FLUOstar® Omega microplate reader (BMG LABTECH, Ortenberg, Germany). The experiments were carried out in triplicate, and the viability of treated cells was expressed as a percentage of the viability of control cells (untreated). Data were represented as means ± standard deviations. Stock solutions of compounds were prepared in DMSO, then diluted in complete cell culture media. […] Data were analyzed with independent two-tailed (Student’s) t-test, considering p < 0.05 statistically significant.

SNB-75 = experiment: NCI-60 5-dose screen; assay type: cell-based, human
LOX IMVI = experiment: NCI-60 5-dose screen; assay type: cell-based, human
ACHN = experiment: NCI-60 5-dose screen; assay type: cell-based, human
HOP-62 = experiment: NCI-60 5-dose screen; assay type: cell-based, human
OVCAR-4 = experiment: NCI-60 5-dose screen; assay type: cell-based, human
SR = experiment: NCI-60 5-dose screen; assay type: cell-based, human
[1] = test system: Gram-positive and Gram-negative bacteria; design: method as in PMID 38398524; conditions: cited from earlier work
[2] = Homo sapiens, read-out: LC50 (the source's name)

O=C1C(Nc2ccc(I)cc2)=CC(c2ccc(O)c(O)c2)N1c1ccc(I)cc1 (centres unmarked) [3h]
TGI (M14): >100 µM | GI50 (M14; Homo sapiens): 5.34 µM | CC50 (M14; [2]): > 100 µM | TGI (HS 578T): >100 µM | GI50 (HS 578T; Homo sapiens): 6.65 µM | CC50 (HS 578T; [2]): > 100 µM | TGI (HCT-116): >100 µM | GI50 (HCT-116; Homo sapiens): 7.43 µM | CC50 (HCT-116; [2]): > 100 µM | TGI (COLO 205): >100 µM | GI50 (COLO 205; Homo sapiens): 6.65 µM | CC50 (COLO 205; [2]): > 100 µM | TGI (RXF 393): >100 µM | GI50 (RXF 393; Homo sapiens): 6.25 µM | CC50 (RXF 393; [2]): > 100 µM | TGI (A549/ATCC): >100 µM | GI50 (A549/ATCC; Homo sapiens): > 100 µM | CC50 (A549/ATCC; [2]): > 100 µM | TGI (SK-OV-3): >100 µM | GI50 (SK-OV-3; Homo sapiens): 7.6 µM | CC50 (SK-OV-3; [2]): > 100 µM | TGI (U251): >100 µM | GI50 (U251; Homo sapiens, U-251): > 100 µM | LC50 (50% lethal concentration) (U251; Homo sapiens, U-251): > 100 µM | TGI (BT-549): >100 µM | GI50 (BT-549; Homo sapiens): > 100 µM | CC50 (BT-549; [2]): > 100 µM | TGI (SF-268): >100 µM | GI50 (SF-268; Homo sapiens): 6.04 µM | CC50 (SF-268; [2]): > 100 µM | TGI (HL-60(TB)): 4.28 µM | GI50 (HL-60(TB); Homo sapiens): 2.19 µM | CC50 (HL-60(TB); [2]): 8.38 µM | TGI (MDA-MB-231/ATCC): >100 µM | GI50 (MDA-MB-231/ATCC; Homo sapiens): > 100 µM | CC50 (MDA-MB-231/ATCC; [2]): > 100 µM | TGI (CAKI-1): >100 µM | GI50 (CAKI-1; Homo sapiens): > 100 µM | CC50 (CAKI-1; [2]): > 100 µM | TGI (MOLT-4): 4.17 µM | GI50 (MOLT-4; Homo sapiens): 2.08 µM | CC50 (MOLT-4; [2]): 8.35 µM | TGI (HT29): >100 µM | GI50 (HT29; Homo sapiens, HT-29): 8.8 µM | CC50 (HT29; Homo sapiens, HT-29, read-out: LC50 (the source's name)): > 100 µM | GI50 (CCRF-CEM): 3.09 µM | CC50 (CCRF-CEM; read-out: LC50 (the source's name)): 3.61 µM | TGI (MDA-MB-468): >100 µM | GI50 (MDA-MB-468; Homo sapiens): 3.1 µM | CC50 (MDA-MB-468; [2]): > 100 µM | GI50 (MALME-3M; Homo sapiens, Malme-3M): 2.68 µM | CC50 (MALME-3M; Homo sapiens, Malme-3M, read-out: LC50 (the source's name)): > 100 µM | TGI (MALME-3M; MALME-3M): >100 µM | TGI (IGROV1): >100 µM | GI50 (IGROV1; Homo sapiens, IGROV-1): > 100 µM | CC50 (IGROV1; Homo sapiens, IGROV-1, read-out: LC50 (the source's name)): > 100 µM | TGI (SW-620): >100 µM | GI50 (SW-620; Homo sapiens): > 100 µM | CC50 (SW-620; [2]): > 100 µM | TGI (OVCAR-3): >100 µM | GI50 (OVCAR-3; Homo sapiens): 9.16 µM | CC50 (OVCAR-3; [2]): > 100 µM | cytotoxicity (activity in words) (U-118MG): moderate activity | TGI (SNB-75): >100 µM | GI50 (SNB-75; Homo sapiens): > 100 µM | CC50 (SNB-75; [2]): > 100 µM | TGI (LOX IMVI): >100 µM | GI50 (LOX IMVI; Homo sapiens): > 100 µM | CC50 (LOX IMVI; [2]): > 100 µM | TGI (ACHN): >100 µM | GI50 (ACHN; Homo sapiens): > 100 µM | CC50 (ACHN; [2]): > 100 µM | TGI (HOP-62): >100 µM | GI50 (HOP-62; Homo sapiens): > 100 µM | CC50 (HOP-62; [2]): > 100 µM | TGI (OVCAR-4): >100 µM | GI50 (OVCAR-4; Homo sapiens): 3.27 µM | CC50 (OVCAR-4; [2]): > 100 µM | TGI (SR): 2.99 µM | GI50 (SR; Homo sapiens): 1.55 µM | CC50 (SR; [2]): 5.75 µM

O=C1C(Nc2ccc(I)cc2)=CC(c2ccc3c(c2)OCO3)N1c1ccc(I)cc1 (centres unmarked) [3n]
antibacterial activity (in words) [1]: highest antibacterial activity

O=C1C(Nc2ccc(I)cc2)=CC(c2ccco2)N1c1ccc(I)cc1 (centres unmarked) [3m]
antibacterial activity (in words) [1]: highest antibacterial activity
